Assay results as given in publication PMC11451537, “P2X7 receptors exhibit at least three modes of allosteric antagonism” (Science Advances, 2024).
Changes are numbered by the printed parent chain.

Legend:
rP2X7-K297V = molecular target: T1, rP2X7-K297V (Rattus norvegicus, UniProt Q64663, K297V); test: TEVC inhibition dose-response, rP2X7-K297V mutant; format: cell-based; details: signals evoked by 300 μM ATP, read-out: IC50 (inhibitory potency), K297V
T1 sequence (Q64663 1-595 K297V): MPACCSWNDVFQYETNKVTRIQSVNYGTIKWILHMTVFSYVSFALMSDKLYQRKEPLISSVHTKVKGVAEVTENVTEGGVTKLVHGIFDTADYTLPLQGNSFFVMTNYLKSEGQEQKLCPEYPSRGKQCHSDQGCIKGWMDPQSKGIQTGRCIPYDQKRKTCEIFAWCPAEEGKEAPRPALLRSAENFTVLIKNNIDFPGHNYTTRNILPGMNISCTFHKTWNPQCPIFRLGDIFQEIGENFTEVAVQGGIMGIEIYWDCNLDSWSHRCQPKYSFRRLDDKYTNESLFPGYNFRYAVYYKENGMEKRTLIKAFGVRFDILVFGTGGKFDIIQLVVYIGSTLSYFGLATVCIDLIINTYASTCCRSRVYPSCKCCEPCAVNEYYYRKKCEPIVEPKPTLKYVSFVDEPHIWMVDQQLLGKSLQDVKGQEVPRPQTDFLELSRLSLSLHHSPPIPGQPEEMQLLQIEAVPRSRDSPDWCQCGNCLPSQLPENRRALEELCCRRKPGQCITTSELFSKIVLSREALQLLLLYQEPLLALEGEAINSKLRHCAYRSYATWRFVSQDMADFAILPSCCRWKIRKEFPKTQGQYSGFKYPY
Source text: Structural determination of the full-length, wild-type rP2X7 was completed using a construct previously described containing no truncations or mutations ([16]). Furthermore, the rP2X7-WT construct used for electrophysiology experiments is unmodified full-length, wild-type rP2X7 with no green fluorescent protein (GFP), protease sites, or affinity tags present. The hP2X1-WT, hP2X2-WT, hP2X3-WT, hP2X4-WT, and hP2X7-WT constructs used for electrophysiology are similarly unmodified full-length, wild-type receptor constructs with no GFP, protease sites, or affinity tags present. Mutations to the rP2X7-WT construct used for electrophysiology experiments were made directly in the pcDNA3.1x plasmid. These constructs included the following: rP2X7-K297A, rP2X7-K297G, rP2X7-K297M, rP2X7-K297Q, rP2X7-K297V, rP2X7-Y298A, rP2X7-Y298G, rP2X7-Y298V, rP2X7-Y298L, rP2X7-R316A, rP2X7-R316G, rP2X7-R316Q, rP2X7-R316H, rP2X7-F88A, rP2X7-F103A, and rP2X7-Y295A.
(§1) To evaluate the inhibitory response of an antagonist for a dilution series, an initial excitatory signal was evoked at a subtype-specific concentration of ATP. Next, the antagonist was applied at a test concentration for 60 s and then coapplied at the same test concentration of the antagonist with the identical subtype-specific concentration of ATP. The antagonized signal was then normalized against the preceding excitatory signal evoked by ATP for each individual oocyte tested. The pre- and post-antagonist signals were evoked by 10 μM ATP for hP2X1, 10 μM ATP for hP2X2, 1 μM ATP for hP2X3, 50 μM ATP for hP2X4, and 100 μM ATP for P2X7. For the K297V mutation in rP2X7, pre- and post-antagonist signals were evoked by 300 μM ATP. Each dataset was then fit to a nonlinear regression named “[inhibitor] vs. response – Variable slope (four parameters)” in GraphPad Prism 9 to produce a sigmoidal curve and afford an IC50 value. Each singular condition was used to generate an average which is reported plus or minus its SD between three discrete trials.

rP2X7 [1] = molecular target: T2, rP2X7 (Rattus norvegicus, UniProt Q64663); test: TEVC recovery of current after complete inhibition (IC100), rP2X7; details: 120 s buffer wash, 100 μM ATP
T2 sequence (Q64663 1-595): T1 sequence (Q64663 1-595 K297V) with V297K
Experimental: Ecocyte Bioscience supplied defolliculated oocytes which were promptly resuspended in modified Barth’s solution containing the following: 88 mM NaCl, 1 mM KCl, 0.82 mM MgSO4, 0.33 mM Ca(NO3)2·4H2O, 0.41 mM CaCl2·2H2O, 2.4 mM NaHCO3, and 5 mM Hepes supplemented with amikacin 250 (mg/liter) and gentamycin (150 mg/liter). Xenopus laevis oocytes were then injected with either hP2X1 (50 nl of 100 ng/μl), hP2X2 (50 nl of 50 ng/μl), hP2X3 (50 nl of 400 ng/μl), hP2X4 (50 nl of 200 ng/μl), hP2X7 (50 nl of 10 ng/μl), or rP2X7 (50 nL of 20 ng/μl or 50 ng/μl) mRNA created from linearized full-length, wild-type or mutant pcDNA 3.1x according to the protocol provided in the mMESSAGE mMACHINE kit (Invitrogen). After injection, the oocytes were allowed to express protein for ~20 hours before recording was performed. Oocytes expressing hP2X4 were allowed to express protein for ~48 hours.
All TEVC data were acquired with an Ooctye Clamp OC-725C amplifier, pClamp 8.2 software, and a gravity-fed RSC-200 Rapid Solution Changer that flowed buffer at ~5 ml/min. For recording, Sutter filamented glass (10 cm in length with an inner diameter of 0.69 mm and an outer diameter of 1.2 mm) was used to impale oocytes and clamp the holding voltage at −60 mV. Recordings for hP2X1, hP2X2, hP2X7, and rP2X7 were performed in buffer with the following: 100 mM NaCl, 2.5 mM KCl, 0.1 mM EDTA, 0.1 mM flufenamic acid, and 5 mM Hepes at pH 7.4. Recordings for hP2X3 and hP2X4 were performed in buffer with the following: 10 mM Hepes (pH 7.4), 140 mM NaCl, 5 mM KCl, 2 mM CaCl2, 2 mM MgCl2, and 10 mM glucose. For TEVC experiments with P2X7, oocytes expressing hP2X7 or rP2X7 were facilitated with 100 μM ATP before recording the final data.
After testing an oocyte with a brief 100 μM ATP excitatory current, an antagonist is applied for 40, 120, or 240 s at IC100 calculated from IC50 values. The oocyte is then treated with 20 s of antagonist at the IC100 plus 100 μM ATP to see complete antagonism. This is followed by 120 s of washing with buffer, ending with a 20-s reapplication of 100 μM ATP. The signal after the reapplication of ATP was then compared to the initial excitatory current to afford a percentage of recovery of activation after complete antagonism. Experiments were run in triplicate. Trials were averaged and errors were reported as SD.

rP2X7 [2] = molecular target: T2, rP2X7; test: TEVC inhibition dose-response (IC50), wild-type rP2X7 in Xenopus laevis oocytes; format: cell-based; parameters: the rP2X7-WT construct used for electrophysiology experiments is unmodified full-length, wild-type rP2X7; expressed in transfected cells; host or cells: Xenopus laevis oocytes injected with mRNA made from pcDNA3.1x; details: for IC100 (100% inhibitory concentration): calculated from IC50 values, concentration applied in the recovery experiments; for IC50: wild-type rP2X7, TEVC, 100 μM ATP, 60 s antagonist pre-application, mean ± SD, triplicate
Source text: as §1

Compound	IC50 (rP2X7-K297V) [nM]	Recovery of activation (% of baseline current) (rP2X7 [1]; rP2X7, 40-s IC100 application) [%]	Recovery of activation (% of baseline current) (rP2X7 [1]; rP2X7, 120-s IC100 application) [%]	Recovery of activation (% of baseline current) (rP2X7 [1]; rP2X7, 240-s IC100 application) [%]	IC100 (100% inhibitory concentration) (rP2X7 [2]) [µM]	IC50 (rP2X7 [2]) [nM]
Clc1cccc(-c2nnnn2Cc2cccnc2)c1Cl [A438079]	110 ± 90	81 ± 5	48 ± 15	50 ± 11	6.6	550 ± 113
Clc1cccc(-n2nnnc2NCc2ccccc2Oc2ccccn2)c1Cl [A839977]	3.2 ± 0.6	67 ± 6	6.7 ± 2	1.4 ± 0.3	1	116 ± 13
O=C(NCC12CC3CC(CC(C3)C1)C2)c1cc(CCCNCCCO)ccc1Cl [AZD9056]	12 ± 1	82 ± 5	47 ± 9	29 ± 15	3	300 ± 100
CN1C(=O)CC[C@H]1C(=O)NCc1cccc(C(F)(F)F)c1Cl [GSK1482160]	1300 ± 400	69 ± 4	45 ± 6	29 ± 9	81	3600 ± 500
O=C(NCC1(N2CCN(c3ccccc3)CC2)CCOCC1)c1cccnc1Sc1ccccc1 [JNJ47965567]	21 ± 6	1.4 ± 0.2	1.6 ± 1	2 ± 1	1.3	22 ± 6
O=S(=O)(O)c1ccc(N=C2C=CC(=C(c3ccc(Nc4ccc(S(=O)(=O)O)cc4)cc3)c3ccc(Nc4ccc(S(=O)(=O)O)cc4)cc3)C=C2)cc1 [methyl blue]	4000 ± 1000	53 ± 4	15 ± 5	4 ± 1	108	4000 ± 1000
